In series [1] the test system is co-culture of keratinocytes and melanocytes. Kind of series: Inhibition of melanin synthesis (ratio of thiouracil to leucine incorporation) in a keratinocyte/melanocyte co-culture. The class given is cell-based. The conditions noted are these: for IC50: ratio of thiouracil to leucine incorporation relative to 100% of control, read-out: IC50 (concentration for which a 50% inhibition of melanogenesis is observed). The protocol:
(§1) The melanogenesis-modulating effect of the compound of Example 2 was measured according to the method described in patent FR-A-2 734 825, and also in the article by R. Schmidt, P. Krien and M. Régnier, Anal. Biochem., 235(2), 113-18, (1996). This test is performed on a co-culture of keratinocytes and melanocytes.
(§2) The following were determined for the test compound: • the cytotoxicity, by estimating the incorporation of leucine, • the inhibitory activity on melanin synthesis, by estimating the ratio of the incorporation of thiouracil to the incorporation of leucine, relative to 100% of the control (the control corresponds to the test performed without test compound). The IC50 values (the concentration for which a 50% inhibition of melanogenesis is observed) were also determined.
(§3) The test was also performed with arbutin, which is a known depigmenting compound.

The test system is the same in series [2]. The series is described as follows: Cytotoxicity by incorporation of leucine in a keratinocyte/melanocyte co-culture. The class given is cell-based. The settings on record: estimated by incorporation of leucine. The protocol: as §1, §2, §3

Regarding `OC[C@H]1O[C@@H](Oc2ccc(O)cc2)[C@H](O)[C@@H](O)[C@@H]1O` [Arbutin, arbutin, reference compound], the IC50 in series [1] was at least 100 µM. In addition, the Cytotoxicity result in series [2] is “No”.
`OC[C@H]1O[C@@H](CC(O)c2ccc(O)cc2)[C@H](O)[C@@H](O)[C@@H]1O` (some centres unmarked) [Example 2]: the “Inhibition of melanogenesis (in words)” value in series [1] (compared with arbutin) is “more efficient than arbutin”. Besides, the IC50 in series [1] was found to be 100 µM. In addition, the Cytotoxicity result in series [2] is listed as “No”.

The record behind these values is patent US20080193400A1, “C-Glycoside Compounds and Use Thereof for Depigmenting the Skin” (priority 2005, published 2008).
